Assay results from patent publication US12428417B2, “Inhibitors of macrophage migration inhibitory factor” (The Brigham and Women's Hospital, Inc., priority 2019, dated 2025).

Assays:
[1] = tested on: Pf-infected RBCs; assay: Confocal microscopy of Pf-infected RBCs with BODIPY TR lipophilic intracellular staining (egress); assay type: cell-based, P. falciparum; details: treated Pf-infected RBCs; FIG. 3
Text: One plane of confocal microscopy z-stack is shown.

[2] = tested on: P. falciparum infected RBC cultures; assay: FACS analysis of infected RBC cultures (schizont stage); assay type: cell-based; details: 48 to 60 hours post infection; data not shown
Experimental: (§1) P. falciparum strain NF54 attB parasites (Dr. Niles, MIT). Synchronized late-stage schizonts were added at 1% initial parasitemia to uninfected recipient normal RBCs and parasitemia was measured by FACS (FIG. 2). […] Given that ibudilast has inhibitory effect on the function of MIF as well as phosphodiesterase 4 (PDE4) in the RBC, it was evaluated whether specific inhibitors of MIF and PDE4 would cause major decline in parasitemia at similar dosages. While inhibition of parasite growth was not observed due to abolishing the function of PDE4 (data not shown), inhibition of the tautomerase activity of MIF in vitro by an irreversible inhibitor of MIF—4-IPP—caused a significant decline in the levels of parasitemia (FIG. 2).

[3] = tested on: P. falciparum strain NF54 attB parasites; assay: Invasion assay: synchronized late-stage schizonts added to uninfected RBCs, parasitemia measured by FACS; assay type: cell-based
Experimental: Experimental protocol: Synchronized late-stage schizonts were added at 1% initial parasitemia to uninfected recipient normal RBCs and parasitemia was measured by FACS. Parasitemia is normalized to the control no-inhibitor condition. Data analyzed by one-way ANOVA. Statistically significant differences are indicated with a star over the bar. Asterisk (*) indicates p<0.01 compared to control (no-inhibitor).
FIG. 2 describes results of invasion assay in presence of titrated amounts of MIF inhibitors. […] All data is normalized to the control no-inhibitor condition. […] Asterisk (*) indicates p<0.01 compared to control (no-inhibitor).
as §1

Molecule: Ic1cc(-c2ccccc2)ncn1 [Example 4-IPP]
- state of mature schizonts (egress) [1]: mature schizonts remain encapsulated
- percentage of mature schizont [2]: significant increase
- parasitemia in vitro ([3]; 1% initial parasitemia, normal RBCs, FIG. 2): significantly lowered parasitemia
- parasitemia after removal of inhibitor 6 h post-infection ([3]; inhibitor removed 6 h post-infection): did not recover the parasitemia
- parasitemia after treating only the recipient RBCs before infection ([3]; recipient RBCs treated 3 h and 6 h, inhibitor washed off before infection): parasitemia at the level of the control condition

Molecule: COC(=O)CC1CC(c2ccc(O)cc2)=NO1 (stereo not shown) [ISO-1]
- invasion at a range of concentrations ([3]; data not shown): did not reduce the invasion

B1: hu-MIF: exogenous human macrophage migration inhibitory factor added in the invasion assay (protein, UniProt P14174 2-115, looked up)
Macrophage migration …: PMFIVNTNVPRASVPDGFLSELTQQLAQATGKPPQYIAVHVVPDQLMAFGGSSEPCALCSLHSIGKIGGAQNRSYSKLLCGLLAERLRISPDRVYINYYDMNAANVGWNNSTFA
- parasitemia in presence of exogenous protein ([3]; cells preincubated for up to 6 h, data not shown): did not show reduced or increased parasitemia
